Measurements as given in ChEMBL document CHEMBL1201862, “PubChem BioAssay data set” (2004).
Counter-ions that a name gives are not always drawn.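 Cultured in 96-well plates, cells were exposed to test compound for 48 hours across five concentrations. GI50 = concentration required for 50% inhibition of growth.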 Activity calls are given as the source filed them. No stated cut-off is given here; in the data, active = GI50 up to about 1.1 µM and inactive = higher.

What was measured:
Assay in all cases: NCI anticancer screen, dose series, 48 h
786-0 = test system: 786-0
A498 = test system: A498
A549 = test system: A549
ACHN = test system: ACHN
COLO 205 = test system: COLO 205
EKVX = test system: EKVX
HOP-92 = test system: HOP-92
Hs-578T = test system: Hs-578T
MDA-MB-435 = test system: MDA-MB-435
Malme-3M = test system: Malme-3M
NCI-H23 = test system: NCI-H23
NCI-H522 = test system: NCI-H522
PC-3 = test system: PC-3
RPMI-8226 = test system: RPMI-8226
RXF 393 = test system: RXF 393
SK-MEL-2 = test system: SK-MEL-2
SK-MEL-5 = test system: SK-MEL-5
T47D = test system: T47D
TK-10 = test system: TK-10
UACC-257 = test system: UACC-257

Structure (SMILES)	GI50 (786-0)	GI50 (A498)	GI50 (A549)	GI50 (ACHN)	GI50 (COLO 205)	GI50 (EKVX)	GI50 (HOP-92)	GI50 (Hs-578T)	GI50 (MDA-MB-435)	GI50 (Malme-3M)	GI50 (NCI-H23)	GI50 (NCI-H522)	GI50 (PC-3)	GI50 (RPMI-8226)	GI50 (RXF 393)	GI50 (SK-MEL-2)	GI50 (SK-MEL-5)	GI50 (T47D)	GI50 (TK-10)	GI50 (UACC-257)
CN(C)c1ccc(C(=O)NCCCCCCC(=O)NO)cc1	0.973 µM (active)	0.711 µM (active)	0.514 µM (active)	0.67 µM (active)	0.33 µM (active)	1.52 µM (inactive)	0.713 µM (active)	0.9 µM (active)	0.264 µM (active)	0.0948 µM (active)	0.562 µM (active)	0.11 µM (active)	0.53 µM (active)	0.195 µM (active)	0.303 µM (active)	0.19 µM (active)	0.289 µM (active)	0.216 µM (active)	0.33 µM (active)	0.237 µM (active)
N#CCCN(CCCN(C(=O)Nc1ccc(NC(=O)N(CCCN(CCC#N)C(N)=O)c2ccccc2)cc1)c1ccccc1)C(N)=O	> 100 µM (inactive)	> 100 µM (inactive)	> 100 µM (inactive)	> 100 µM (inactive)	> 100 µM (inactive)	> 100 µM (inactive)	> 100 µM (inactive)	> 100 µM (inactive)	> 100 µM (inactive)	> 100 µM (inactive)	> 100 µM (inactive)	> 100 µM (inactive)	> 100 µM (inactive)	> 100 µM (inactive)	> 100 µM (inactive)	> 100 µM (inactive)	> 100 µM (inactive)	> 100 µM (inactive)	> 100 µM (inactive)	> 100 µM (inactive)
Cn1c(=O)cc(NCc2ccc(Cl)cc2)[nH]c1=O	54 µM (inactive)	> 100 µM (inactive)	> 100 µM (inactive)	49.7 µM (inactive)	> 100 µM (inactive)	> 100 µM (inactive)	19.3 µM (inactive)	18.8 µM (inactive)	> 100 µM (inactive)	73.3 µM (inactive)	> 100 µM (inactive)	34.4 µM (inactive)	> 100 µM (inactive)	> 100 µM (inactive)	68.7 µM (inactive)	> 100 µM (inactive)	> 100 µM (inactive)	91.2 µM (inactive)	21.5 µM (inactive)	> 100 µM (inactive)
CN(C)CCNC(=O)C(C)(C)Oc1ccc(C(=O)c2ccc(Cl)cc2)cc1Cl	3.91 µM (inactive)	16.1 µM (inactive)	9.18 µM (inactive)	11 µM (inactive)	1.82 µM (inactive)	11.2 µM (inactive)	6 µM (inactive)	6.14 µM (inactive)	5.6 µM (inactive)	5.01 µM (inactive)	9.86 µM (inactive)	15 µM (inactive)	11.5 µM (inactive)	3.94 µM (inactive)	7.52 µM (inactive)	18 µM (inactive)	2.25 µM (inactive)	10.4 µM (inactive)	11.4 µM (inactive)	2 µM (inactive)
COc1ccc(/N=C2\C(=S)N(c3ccc(OC)cc3)/C(=N/S(=O)(=O)c3ccccc3)N2c2ccccc2)cc1	7.14 µM (inactive)	> 100 µM (inactive)	34.9 µM (inactive)	8.85 µM (inactive)	8.81 µM (inactive)	16.4 µM (inactive)	7.01 µM (inactive)	17.9 µM (inactive)	7.87 µM (inactive)	15.1 µM (inactive)	10.2 µM (inactive)	1.64 µM (inactive)	4.67 µM (inactive)	1.45 µM (inactive)	5.22 µM (inactive)	7.64 µM (inactive)	4.57 µM (inactive)	1.09 µM (active)	14.7 µM (inactive)	13 µM (inactive)
C[n+]1c2ccccc2c(CNC(CCC(N)=O)C(=O)O)c2ccccc21 (stereo not given)	1.01 µM (active)	0.6 µM (active)	4.38 µM (inactive)	1.76 µM (inactive)	0.525 µM (active)	6.75 µM (inactive)	0.948 µM (active)	5.68 µM (inactive)	2.55 µM (inactive)	4.44 µM (inactive)	3.9 µM (inactive)	1.57 µM (inactive)	5.61 µM (inactive)	0.39 µM (active)	1.99 µM (inactive)	4.76 µM (inactive)	1.99 µM (inactive)	0.0221 µM (active)	1.53 µM (inactive)	4.31 µM (inactive)
CN/C(N)=N/N=C1/C(=O)Nc2ccccc21	> 100 µM (inactive)	> 100 µM (inactive)	> 100 µM (inactive)	> 100 µM (inactive)	> 100 µM (inactive)	> 100 µM (inactive)	> 100 µM (inactive)	> 100 µM (inactive)	> 100 µM (inactive)	> 100 µM (inactive)	> 100 µM (inactive)	> 100 µM (inactive)	> 100 µM (inactive)	> 100 µM (inactive)	> 100 µM (inactive)	> 100 µM (inactive)	> 100 µM (inactive)	> 100 µM (inactive)	> 100 µM (inactive)	> 100 µM (inactive)
NNc1ccccc1Cl	> 100 µM (inactive)	> 100 µM (inactive)	> 100 µM (inactive)	> 100 µM (inactive)	29 µM (inactive)	> 100 µM (inactive)	> 100 µM (inactive)	> 100 µM (inactive)	> 100 µM (inactive)	> 100 µM (inactive)	> 100 µM (inactive)	> 100 µM (inactive)	69.2 µM (inactive)	> 100 µM (inactive)	> 100 µM (inactive)	> 100 µM (inactive)	30.5 µM (inactive)	59.8 µM (inactive)	> 100 µM (inactive)	> 100 µM (inactive)
CC(=O)N(O)CCCCCNC(=O)CCC(=O)N(O)CCCCCNC(=O)CCC(=O)N(O)CCCCCN [DEFEROXAMINE HYDROCHLORIDE]	13.3 µM (inactive)	> 80.4 µM (inactive)	14.5 µM (inactive)	12.5 µM (inactive)	34.7 µM (inactive)	29 µM (inactive)	> 100 µM (inactive)	> 100 µM (inactive)	> 78.5 µM (inactive)	55.1 µM (inactive)	63.5 µM (inactive)	41.9 µM (inactive)	> 73.6 µM (inactive)	62.5 µM (inactive)	57.4 µM (inactive)	> 92.7 µM (inactive)	21.7 µM (inactive)	> 100 µM (inactive)	42 µM (inactive)	50.4 µM (inactive)
